The results in this text go back to US11572590B2, “Methods for evaluating tumor cell spheroids using 3D microfluidic cell culture device” (Dana-Farber Cancer Institute, Inc., priority 2017, dated 2023).

What all share (experiment): SelectScreen Kinase Profiling, single point inhibition and IC50 for off-target kinases
What all share (assay type): biochemical

For experiment [1], the target named is off-target kinases (Homo sapiens, UniProt Q9UK32). The following applies: RPS6KA6 (RSK4), ZLYTE, ATP Km app.
Chain of off-target kinases (Homo sapiens, UniProt Q9UK32) (Q9UK32 whole entry): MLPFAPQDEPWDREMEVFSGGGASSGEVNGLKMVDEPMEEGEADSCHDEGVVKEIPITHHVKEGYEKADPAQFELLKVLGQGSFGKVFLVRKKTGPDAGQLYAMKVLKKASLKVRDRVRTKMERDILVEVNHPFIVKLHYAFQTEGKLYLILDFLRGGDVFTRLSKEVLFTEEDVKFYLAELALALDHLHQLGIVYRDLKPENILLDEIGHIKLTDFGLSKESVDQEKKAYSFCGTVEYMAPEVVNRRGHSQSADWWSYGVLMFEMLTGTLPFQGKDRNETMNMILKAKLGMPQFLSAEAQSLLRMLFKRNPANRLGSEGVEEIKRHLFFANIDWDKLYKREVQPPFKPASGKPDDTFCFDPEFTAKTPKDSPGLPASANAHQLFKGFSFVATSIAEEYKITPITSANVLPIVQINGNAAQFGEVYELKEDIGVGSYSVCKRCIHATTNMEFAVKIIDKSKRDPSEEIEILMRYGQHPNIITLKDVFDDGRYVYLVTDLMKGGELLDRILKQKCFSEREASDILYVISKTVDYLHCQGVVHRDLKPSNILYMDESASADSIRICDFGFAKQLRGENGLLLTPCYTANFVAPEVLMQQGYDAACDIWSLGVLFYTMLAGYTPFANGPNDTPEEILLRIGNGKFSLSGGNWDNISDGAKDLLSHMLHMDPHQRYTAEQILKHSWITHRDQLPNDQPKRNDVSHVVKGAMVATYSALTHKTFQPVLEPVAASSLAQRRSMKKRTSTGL
In experiment [2] the target is off-target kinases (Homo sapiens, UniProt P15056, V600E). The settings on record: BRAF V599E.
Chain of off-target kinases (Homo sapiens, UniProt P15056, V600E) (P15056 whole entry V600E): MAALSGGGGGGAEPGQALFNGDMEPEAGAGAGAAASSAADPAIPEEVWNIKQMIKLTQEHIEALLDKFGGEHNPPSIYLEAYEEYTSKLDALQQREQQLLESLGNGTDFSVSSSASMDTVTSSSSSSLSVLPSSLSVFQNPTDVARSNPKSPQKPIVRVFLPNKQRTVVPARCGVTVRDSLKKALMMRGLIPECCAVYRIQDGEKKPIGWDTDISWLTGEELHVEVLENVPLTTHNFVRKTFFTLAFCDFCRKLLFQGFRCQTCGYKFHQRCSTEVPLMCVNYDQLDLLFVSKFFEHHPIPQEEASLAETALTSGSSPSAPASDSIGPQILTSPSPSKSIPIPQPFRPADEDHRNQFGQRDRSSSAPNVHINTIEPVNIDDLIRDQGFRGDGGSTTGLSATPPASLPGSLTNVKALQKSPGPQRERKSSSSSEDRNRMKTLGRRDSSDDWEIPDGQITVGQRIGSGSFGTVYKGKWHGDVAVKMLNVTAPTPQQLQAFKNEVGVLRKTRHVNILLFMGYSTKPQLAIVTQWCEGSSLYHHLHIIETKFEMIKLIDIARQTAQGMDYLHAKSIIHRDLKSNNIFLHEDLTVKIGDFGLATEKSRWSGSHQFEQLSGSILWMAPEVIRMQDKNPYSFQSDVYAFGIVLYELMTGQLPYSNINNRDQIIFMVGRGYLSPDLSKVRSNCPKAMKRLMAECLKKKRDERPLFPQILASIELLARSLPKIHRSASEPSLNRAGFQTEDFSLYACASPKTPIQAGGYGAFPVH
The target in experiment [3] is off-target kinases (Homo sapiens, UniProt P05129). The following applies: PRKCG (PKC gamma); Cmpd1 1000 μM; ATP Km app; ZLYTE.
Experiment [4] addresses off-target kinases (Homo sapiens, UniProt P27361). The settings on record: MAPK3 (ERK1), ZLYTE, ATP Km app.
The target in experiment [5] is T1, off-target kinases (Homo sapiens, UniProt P43403).
T1 sequence (P43403 1-619): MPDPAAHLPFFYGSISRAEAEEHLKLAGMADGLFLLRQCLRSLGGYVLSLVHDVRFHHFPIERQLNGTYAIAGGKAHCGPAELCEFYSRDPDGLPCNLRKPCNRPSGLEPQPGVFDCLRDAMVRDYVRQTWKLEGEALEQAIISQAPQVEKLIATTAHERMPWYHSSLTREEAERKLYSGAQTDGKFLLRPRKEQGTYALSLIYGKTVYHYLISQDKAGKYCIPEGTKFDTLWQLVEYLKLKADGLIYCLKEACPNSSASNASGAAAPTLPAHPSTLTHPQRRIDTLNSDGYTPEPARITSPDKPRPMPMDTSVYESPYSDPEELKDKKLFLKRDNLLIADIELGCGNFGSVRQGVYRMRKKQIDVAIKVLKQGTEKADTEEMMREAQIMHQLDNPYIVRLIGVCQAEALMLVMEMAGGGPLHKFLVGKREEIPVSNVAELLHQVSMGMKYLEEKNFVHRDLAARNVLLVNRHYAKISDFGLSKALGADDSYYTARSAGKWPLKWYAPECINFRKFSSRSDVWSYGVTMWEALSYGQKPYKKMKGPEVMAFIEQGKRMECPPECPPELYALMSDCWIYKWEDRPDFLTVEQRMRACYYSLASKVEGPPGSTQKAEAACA
The following applies: ZAP70, ZLYTE, ATP Km app.

Experiment [6] deals with T2, off-target kinases (Homo sapiens, UniProt O43781).
T2 sequence (O43781 1-588): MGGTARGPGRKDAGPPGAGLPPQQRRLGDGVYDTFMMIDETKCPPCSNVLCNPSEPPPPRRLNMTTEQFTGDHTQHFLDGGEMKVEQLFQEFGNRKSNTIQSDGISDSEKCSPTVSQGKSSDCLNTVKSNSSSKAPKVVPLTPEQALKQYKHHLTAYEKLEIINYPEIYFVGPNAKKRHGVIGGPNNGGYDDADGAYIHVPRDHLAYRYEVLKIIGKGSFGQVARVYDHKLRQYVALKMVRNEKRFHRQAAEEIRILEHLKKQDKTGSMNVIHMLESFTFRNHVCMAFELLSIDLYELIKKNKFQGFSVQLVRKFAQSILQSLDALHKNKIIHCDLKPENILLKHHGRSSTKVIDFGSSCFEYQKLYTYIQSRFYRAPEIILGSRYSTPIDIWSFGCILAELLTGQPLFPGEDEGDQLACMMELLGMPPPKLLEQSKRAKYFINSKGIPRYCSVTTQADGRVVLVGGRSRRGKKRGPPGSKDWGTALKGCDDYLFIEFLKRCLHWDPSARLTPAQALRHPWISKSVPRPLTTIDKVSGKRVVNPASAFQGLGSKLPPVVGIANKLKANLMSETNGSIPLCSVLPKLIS
The following applies: DYRK3, ZLYTE, ATP Km app.

Structures are written as SMILES. Read-outs that look alike come from different tables or passages of the source.

Chain of off-target kinases (Homo sapiens, UniProt P27361) (P27361 whole entry): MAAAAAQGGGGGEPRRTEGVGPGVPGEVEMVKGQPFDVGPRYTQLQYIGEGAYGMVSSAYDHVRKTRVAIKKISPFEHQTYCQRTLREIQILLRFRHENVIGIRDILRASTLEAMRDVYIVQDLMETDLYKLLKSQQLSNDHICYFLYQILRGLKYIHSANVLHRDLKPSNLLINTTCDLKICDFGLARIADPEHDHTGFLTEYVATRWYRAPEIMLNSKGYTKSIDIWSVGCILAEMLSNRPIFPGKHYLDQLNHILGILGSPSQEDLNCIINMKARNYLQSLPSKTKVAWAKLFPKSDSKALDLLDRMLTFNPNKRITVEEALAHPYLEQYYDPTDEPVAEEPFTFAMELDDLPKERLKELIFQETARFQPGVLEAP

Turning to `N#Cc1cc(-c2ncnc(Nc3ccc(N4CCN(C5COC5)CC4)cc3)n2)ccc1OC1CCOCC1` [Compound 1, 5-(4-((4-(4-(oxetan-3-yl)piperazin-1-yl)phenyl)amino)-1,3,5-triazin-2-yl)-2-((tetrahydro-2H-pyran-4-yl)oxy)benzonitrile], the inhibition in experiment [1] (read-out: % Inhibition 1) turned out to be 14%; in experiment [1] (read-out: % Inhibition 2) it was 17%; in experiment [1] (read-out: % Inhibition Avg), 16%; in experiment [2] (ATP 100, ZLYTE, read-out: % Inhibition 1), 63%; in experiment [2] (ATP 100, ZLYTE, read-out: % Inhibition 2) it was 61%; in experiment [2] (ATP 100, ZLYTE, read-out: % Inhibition Avg) it was 62%. The inhibition is 50% in experiment [2] (LanthaScreen Binding, read-out: % Inhibition 1); 53% in experiment [2] (LanthaScreen Binding, read-out: % Inhibition 2); 52% in experiment [2] (LanthaScreen Binding, read-out: % Inhibition Avg); 3% in experiment [4] (read-out: % Inhibition 1); -2% in experiment [4] (read-out: % Inhibition 2); 0% in experiment [4] (read-out: % Inhibition Avg). In addition, the inhibition in experiment [5] (read-out: % Inhibition 1) was found to be 4%; in experiment [5] (read-out: % Inhibition 2) it was 4%; in experiment [5] (read-out: % Inhibition Avg), 4%; in experiment [6] (read-out: % Inhibition 1), 26%; in experiment [6] (read-out: % Inhibition 2) it was 24%; in experiment [6] (read-out: % Inhibition Avg), 25%. Besides, the “% Inhibition 1” value in experiment [3] is −9%. Besides, the “% Inhibition 2” value in experiment [3] was −1%. The “% Inhibition Avg” value in experiment [3] is reported as −5%.
